Data on two compounds can be found in US11524041B2, “Ginkgo diterpene lactone composition” (Jiangsu Kanion Pharmaceutical Co., Ltd., priority 2017, dated 2022).

Where a name gives a salt, the structure may show the parent alone.

Common to all, as to format: in vivo
The test system of assay [1] is level of oxidative stress of rats. The assay is described as follows: Detection of oxidative stress in serum of rats given alcohol. The settings on record: rat serum, alcohol 6 g/kg daily, compositions 3 mg/kg iv, edaravone 6.25 mg/kg iv, daily for 5 weeks, n = 10. The method, then: 2.1 Modeling and administration: Healthy male rats were selected and randomly divided into normal group, model group, positive drug group and Ginkgo diterpene lactone composition groups A-K, With the exception of the normal group, the other groups were orally administrated with alcohol with a daily dose of 6 g/kg. Rats in the positive drug group were administrated with edaravone injection (iv) in a daily dose of 6.25 mg/kg, and rats in the Ginkgo diterpene lactone composition groups A-K were administrated in a daily dose of 3 mg/kg (iv), they were continuously administrated or given alcohol for 5 weeks.
2.2 Detection of oxidative stress: After the administration, rats in each group were anesthetized with 10% chloral hydrate, abdominal aortic blood was collected and then subjected to heparin anticoagulation to separate serum; changes of MDA, SOD, GSH and TAC levels in the serum were detected according to the instructions of the kits, and the protein content of each sample was measured using the BCA protein test kit.
2.3 Statistical analysis: The data are expressed as (x±s). All data are analyzed by one-way ANOVA using SPSS 19.0 software to determine the significance of the difference.

The next assay relates to rats. The assay is described as follows: Electric shock avoidance experiment for rats (learned helplessness electric shock model). As to conditions: compositions 6.26 mg/kg ig, imipramine 33 mg/kg oral, once a day for 35 days, results of the fifth training, X ± S. From the text:
2.3 Electric shock avoidance experiment for rats: The anti-depression effect of the drug was observed using a learned helplessness electric shock model. Healthy male rats weighing 180-220 g were selected and randomly divided into normal group, model group, positive drug group and Ginkgo diterpene lactone composition groups A-K, with 10 rats in each group. The rats in the […] were orally administered with the same normal saline every day; the rats in the positive drug group were orally administered with imipramine tablet in a daily dose of 33 mg/kg, and the rats in the Ginkgo diterpene lactone composition groups A-K were administered in a daily dose of 6.26 mg/kg (ig), once a day for 35 consecutive days. The experiment was started 30 minutes after the 30th administration. On the first day of the experiment, “helpless induction” was performed. […] The training was conducted for 5 days, and the number of successful escapes of each rat during training was recorded every day, and the results of the fifth training were counted.
(§1) 2.4 Statistical analysis: The data are expressed as (x±s). All data are analyzed by one-way ANOVA using SPSS 19.0 software to determine the significance of the difference.

A further assay relates to mice. The assay is described as follows: Forced swimming experiment for mice. As to conditions: compositions 9 mg/kg ig, imipramine 50 mg/kg oral, once a day for 5 days, difference of immobility times, X ± S. The procedure: 2.2 Forced swimming experiment for mice: Male mice weighing 20-24 g were selected, grouped and administered in the same manner as in Section 2.1. The experiment was started 30 minutes after the fifth administration. The mice were placed in a graduated cylinder (20 cm in height and 14 cm in diameter) with 30° C. water in the depth of 10 cm. The difference between the two immobility times of the mice themselves were calculated and then statistical analysis was conducted after Ig (X++45) conversion.
as §1

Where [2] appears, read: n = 10, listed as imipramine, hydrochloride.

Regarding `CC1=NN(c2ccccc2)C(=O)C1` [Edaravone, edaravone], in assay [1], the MDA came out at 59.6 ± 20.6 nmol/mg, the SOD came out at 769.5 ± 55.5 U/mg and the TAC was found to be 243.6 ± 0.9 U/mg. Further, in assay [1] (listed as edaravone injection), the GSH result was “significantly corrected”, the MDA entry was “significantly corrected”, the SOD entry is “significantly corrected” and the TAC result is listed as “significantly corrected”.

Regarding `CN(C)CCCN1c2ccccc2CCc2ccccc21` [Imipramine, imipramine hydrochloride], the “Accumulative number of successful escapes” value was 24.5 ± 1.5 in the assay with rats (n = 10, hydrochloride) and “significantly increased” in the assay with rats (setting [2]). The “Swimming interval (X + 45) conversion” value is 4.03 ± 0.05^ with mice (n = 10, hydrochloride) and “significantly prolonged” in the assay with mice (setting [2]).
